Where two headings read alike, the source gives them in different places.
Columns and labels:
BCRP transporter = tested on: BCRP transporter; parameters: method as in Mease et al., 2012; details: 1 µM inhibitor; Caco-2; ref Mease et al., 2012; cited from earlier work
P-gp = tested on: P-gp; parameters: method as in Mease et al., 2012; details: 10 µM inhibitor; Caco-2; ref Mease et al., 2012; cited from earlier work
[1] = Bidirectional transport assay, P-gp single- and double-KO cells taken together; format: in vitro ADME; details: human, pH 7.4, 5 μM substrate
Description: (§1) The medium was replaced every second day.
(§2) All these studies were conducted by following similar procedures. […] Then, HBSS was aspirated from both sides.
(§3) The flow rate was 0.3 mL/min.

[2] = tested on: BCRP, MRP2, and MRP2/BCRP knock-out cell lines mediated by ZFN; parameters: method as in Sampson et al., 2015; details: ref Sampson et al., 2015, cited from earlier work
[3] = Bidirectional transport assay across Caco-2 WT monolayers; details: human
Caco-2 WT cells = assay: as above; details: WT Caco-2, 5 μM substrate, n = 3
[4] = Bidirectional transport assay across P-gp KO Caco-2 monolayers; details: human, pH 7.4
[5] = Bidirectional transport assay across BCRP KO Caco-2 monolayers; details: human; for Papp A→B at 1 h, 5 μM / Papp B→A at 1 h, 5 μM: pH 7.4
[6] = Bidirectional transport assay across MRP2 KO Caco-2 monolayers; details: human, pH 7.4
[7] = Bidirectional transport assay across P-gp/BCRP double KO Caco-2 monolayers; details: human, pH 7.4
[8] = Bidirectional transport assay across P-gp/MRP2 double KO Caco-2 monolayers; details: human, pH 7.4
[9] = Bidirectional transport assay across MRP2/BCRP double KO Caco-2 monolayers; details: human; for Papp A→B at 1 h, 5 μM: pH 7.4, Papp A-to-B, Caco^MRP2−/−BCRP−/−, 5 μM substrate, 37°C, HBSS pH 7.4, n = 3
[10] = Bidirectional transport assay, Caco^BCRP−/− and Caco^MRP2−/− cells taken together; format: in vitro ADME; details: human
Description: as §1, §2, §3

[11] = tested on: Caco^MRP2−/−BCRP−/− cells; assay: Bidirectional transport assay across MRP2/BCRP double KO Caco-2 monolayers; details: Caco^MRP2−/−BCRP−/−; 5 μM substrate; 1 h, 37°C, HBSS pH 7.4; n = 3

COc1ccc2c3c([nH]c2c1)[C@H](C=C(C)C)N1C(=O)[C@@H]2CCCN2C(=O)[C@@H]1C3 [fumitremorgin C]
Inhibition of the BCRP transporter (BCRP transporter): selectively inhibited
Inhibition of P-gp (P-gp): only partially inhibited

C[C@H]1O[C@@H](O[C@H]2[C@@H](O)C[C@H](O[C@H]3[C@@H](O)C[C@H](O[C@H]4CC[C@@]5(C)[C@H](CC[C@@H]6[C@@H]5C[C@@H](O)[C@]5(C)[C@@H](C7=CC(=O)OC7)CC[C@]65O)C4)O[C@@H]3C)O[C@@H]2C)C[C@H](O)[C@@H]1O [Digoxin]
efflux ratio at 1 h, 5 μM [1]: 1
Papp A-to-B ([2]; BCRP, MRP2, and MRP2/BCRP knock-out cell lines mediated by ZFN): ~ 0.25 × 10^–6 cm/s
Papp A-to-B ([2]; starting value before knock-out ('from')): 0.99 × 10^–6 cm/s
Papp A→B at 1 h, 5 μM ([3]; Caco-2, pH 7.4): 1.48 ± 0.21 ×10⁻⁶ cm/s
Papp B→A at 1 h, 5 μM ([3]; Caco-2, pH 7.4): 9.33 ± 1.34 ×10⁻⁶ cm/s
efflux ratio at 1 h, 5 μM ([3]; Caco-2, pH 7.4, Efflux ratio, WT Caco-2, 5 μM substrate, Papp(B-to-A)/Papp(A-to-B), n = 3): 6.4
Efflux ratio (Caco-2 WT cells; Papp(B-to-A)/Papp(A-to-B)): 6.38 ± 1.21
Papp A→B at 1 h, 5 μM [4]: 1.42 ± 0.2 ×10⁻⁶ cm/s
Papp B→A at 1 h, 5 μM [4]: 1.67 ± 0.23 ×10⁻⁶ cm/s
efflux ratio at 1 h, 5 μM [4]: 1.2 ± 0.21
Papp A→B at 1 h, 5 μM [5]: 1.66 ± 0.42 ×10⁻⁶ cm/s
Papp B→A at 1 h, 5 μM [5]: 14.8 ± 1.85 ×10⁻⁶ cm/s
efflux ratio at 1 h, 5 μM ([5]; pH 7.4, Efflux ratio, Caco^BCRP−/−, 5 μM substrate, n = 3): 9.11 ± 1.66
Papp A→B at 1 h, 5 μM [6]: 2.05 ± 0.51 ×10⁻⁶ cm/s
Papp B→A at 1 h, 5 μM [6]: 17.6 ± 1.13 ×10⁻⁶ cm/s
efflux ratio at 1 h, 5 μM [6]: 9.08 ± 2.87
Papp A→B at 1 h, 5 μM [7]: 2.42 ± 0.64 ×10⁻⁶ cm/s
Papp B→A at 1 h, 5 μM [7]: 2.08 ± 0.12 ×10⁻⁶ cm/s
efflux ratio at 1 h, 5 μM [7]: 0.9 ± 0.21
Papp A→B at 1 h, 5 μM [8]: 1.95 ± 0.92 ×10⁻⁶ cm/s
Papp B→A at 1 h, 5 μM [8]: 1.87 ± 0.4 ×10⁻⁶ cm/s
efflux ratio at 1 h, 5 μM [8]: 1.05 ± 0.29
Papp B→A at 1 h, 5 μM ([9]; pH 7.4): 17.9 ± 0.63 ×10⁻⁶ cm/s
efflux ratio at 1 h, 5 μM ([9]; pH 7.4): 9.36 ± 3.17
Papp A→B at 1 h, 5 μM [9]: 2.03 ± 0.55 ×10⁻⁶ cm/s

CC(C)CN(C[C@@H](O)[C@H](Cc1ccccc1)NC(=O)O[C@H]1CO[C@H]2OCC[C@H]21)S(=O)(=O)c1ccc(N)cc1 [Darunavir]
Papp A→B at 1 h, 5 μM ([10]; pH 7.4, read-out: Papp (A-to-B) permeability): 1.7 to 1.8 ×10⁻⁶ cm/s
Papp B→A at 1 h, 5 μM ([10]; pH 7.4, read-out: Papp (B-to-A) permeability): 29.8 to 34.3 ×10⁻⁶ cm/s
Papp A→B at 1 h, 5 μM ([3]; Caco-2, pH 7.4, Papp A-to-B, WT Caco-2, 5 μM substrate, 1 h, 37°C, HBSS pH 7.4, n = 3): 2.6 ×10⁻⁶ cm/s
Papp B→A at 1 h, 5 μM ([3]; Caco-2, pH 7.4, Papp B-to-A, WT Caco-2, 5 μM substrate, 1 h, 37°C, HBSS pH 7.4, n = 3): 26.6 ×10⁻⁶ cm/s
Papp A-to-B (Caco-2 WT cells; 1 h, 37°C, HBSS pH 7.4): 2.65 ± 0.22 ×10^−6cm/s
Papp B-to-A (Caco-2 WT cells; 1 h, 37°C, HBSS pH 7.4): 26.59 ± 2.06 ×10^−6cm/s
Papp A→B at 1 h, 5 μM [4]: 15.1 ± 0.68 ×10⁻⁶ cm/s
Papp B→A at 1 h, 5 μM [4]: 13.6 ± 0.8 ×10⁻⁶ cm/s
Papp A→B at 1 h, 5 μM [5]: 1.75 ± 0.13 ×10⁻⁶ cm/s
Papp B→A at 1 h, 5 μM [5]: 34.32 ± 0.19 ×10⁻⁶ cm/s
Papp A→B at 1 h, 5 μM [6]: 1.9 ± 0.14 ×10⁻⁶ cm/s
Papp B→A at 1 h, 5 μM [6]: 29.84 ± 0.24 ×10⁻⁶ cm/s
Papp A→B at 1 h, 5 μM [7]: 12.6 ± 1.31 ×10⁻⁶ cm/s
Papp B→A at 1 h, 5 μM [7]: 11.5 ± 0.38 ×10⁻⁶ cm/s
Papp A→B at 1 h, 5 μM [8]: 10.1 ± 0.44 ×10⁻⁶ cm/s
Papp B→A at 1 h, 5 μM [8]: 10.4 ± 0.2 ×10⁻⁶ cm/s
Papp B→A at 1 h, 5 μM ([9]; pH 7.4): 27 ± 0.79 ×10⁻⁶ cm/s
Papp A→B at 1 h, 5 μM [9]: 4.4 ×10⁻⁶ cm/s
Papp A-to-B [11]: 4.43 ± 0.63 ×10^−6cm/s
